In ChEMBL document CHEMBL1201862, “PubChem BioAssay data set” (2004):
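Tested at 5 concentrations; 48 h exposure; 96-well plates; endpoints linearly interpolated, else capped at highest concentration. GI50 is the concentration that inhibits growth by half.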 Calls of active or inactive are those of the source. Cut-off read from the data, not from the text of the source: active = GI50 up to about 1.1 µM and inactive = higher.

Key:
Experiment in all cases: growth of human tumour cells (NCI), 48 h
HCT-116 = tested on: HCT-116
SF-268 = tested on: SF-268
NCI/ADR-RES = tested on: NCI/ADR-RES
EKVX = tested on: EKVX
HT-29 = tested on: HT-29
OVCAR-4 = tested on: OVCAR-4
A549 = tested on: A549
SK-OV-3 = tested on: SK-OV-3
SF-295 = tested on: SF-295
SR = tested on: SR
KM12 = tested on: KM12
MDA-N = tested on: MDA-N
DU-145 = tested on: DU-145
ACHN = tested on: ACHN
A498 = tested on: A498
MDA-MB-231 = tested on: MDA-MB-231
NCI-H226 = tested on: NCI-H226
CAKI-1 = tested on: CAKI-1
BT-549 = tested on: BT-549
SNB-78 = tested on: SNB-78

| SMILES | GI50 (HCT-116) | GI50 (SF-268) | GI50 (NCI/ADR-RES) | GI50 (EKVX) | GI50 (HT-29) | GI50 (OVCAR-4) | GI50 (A549) | GI50 (SK-OV-3) | GI50 (SF-295) | GI50 (SR) | GI50 (KM12) | GI50 (MDA-N) | GI50 (DU-145) | GI50 (ACHN) | GI50 (A498) | GI50 (MDA-MB-231) | GI50 (NCI-H226) | GI50 (CAKI-1) | GI50 (BT-549) | GI50 (SNB-78) |
| --- | --- | --- | --- | --- | --- | --- | --- | --- | --- | --- | --- | --- | --- | --- | --- | --- | --- | --- | --- | --- |
| CC1=C(Br)C(=O)C(C)=C(Br)C1=O.Cc1c(O)c(Br)c(C)c(O)c1Br | 1.69 µM (inactive) | 4.17 µM (inactive) | 4.31 µM (inactive) | 1.85 µM (inactive) | 2.07 µM (inactive) | 1.79 µM (inactive) | 18.3 µM (inactive) | 15.6 µM (inactive) | 16.3 µM (inactive) | 0.925 µM (active) | 19.4 µM (inactive) | 1.81 µM (inactive) | 2.31 µM (inactive) | 1.68 µM (inactive) | 15.3 µM (inactive) | 4.4 µM (inactive) | 6.65 µM (inactive) | 2.14 µM (inactive) | 5.33 µM (inactive) | – |
| COc1c(Cl)c(=O)oc2ccc(Cl)cc12 | > 100 µM (inactive) | > 100 µM (inactive) | > 100 µM (inactive) | 81.7 µM (inactive) | > 100 µM (inactive) | > 100 µM (inactive) | > 100 µM (inactive) | > 100 µM (inactive) | 53.2 µM (inactive) | > 100 µM (inactive) | > 100 µM (inactive) | > 100 µM (inactive) | > 100 µM (inactive) | > 100 µM (inactive) | > 100 µM (inactive) | > 100 µM (inactive) | > 100 µM (inactive) | > 100 µM (inactive) | > 100 µM (inactive) | – |
| COc1ccc(OC)c2c1CC(C(=O)O)(C(=O)O)CC2=O | > 100 µM (inactive) | > 100 µM (inactive) | – | > 100 µM (inactive) | – | > 100 µM (inactive) | > 100 µM (inactive) | > 100 µM (inactive) | – | – | > 100 µM (inactive) | – | – | > 100 µM (inactive) | – | – | > 100 µM (inactive) | > 100 µM (inactive) | – | > 100 µM (inactive) |
| CC(C)N(C(=O)C12C3C4C1C1C4(C#N)C3C12C#N)C(C)C (configuration not stated) | – | > 100 µM (inactive) | – | > 100 µM (inactive) | > 100 µM (inactive) | > 100 µM (inactive) | > 100 µM (inactive) | > 100 µM (inactive) | > 100 µM (inactive) | – | – | – | – | > 100 µM (inactive) | > 100 µM (inactive) | – | > 100 µM (inactive) | > 100 µM (inactive) | – | > 100 µM (inactive) |
| CC(=O)N/C(=C\c1ccccc1/C=C(\NC(C)=O)c1nc2cc(C)c(C)cc2[nH]1)c1nc2cc(C)c(C)cc2[nH]1 | 5.48 µM (inactive) | 24.1 µM (inactive) | – | 12.3 µM (inactive) | 34.8 µM (inactive) | – | 28 µM (inactive) | 34.4 µM (inactive) | – | 0.689 µM (active) | 11.8 µM (inactive) | – | – | 14.8 µM (inactive) | 42.4 µM (inactive) | – | 25.8 µM (inactive) | 11.5 µM (inactive) | – | 10.7 µM (inactive) |
| COc1ccc2c(c1)OCC1=C2Oc2ccccc2C1 | 36.6 µM (inactive) | 81.3 µM (inactive) | 44.4 µM (inactive) | 30.3 µM (inactive) | 26.7 µM (inactive) | 31.6 µM (inactive) | 48.5 µM (inactive) | 85.3 µM (inactive) | 41.5 µM (inactive) | 26.9 µM (inactive) | 55.8 µM (inactive) | 25 µM (inactive) | 83.9 µM (inactive) | 37.4 µM (inactive) | > 100 µM (inactive) | 23.5 µM (inactive) | 27 µM (inactive) | 49.7 µM (inactive) | 28 µM (inactive) | – |
| C=C(C(=O)OC)N1C(=O)CC(C)C1=O (configuration not stated) | 6.67 µM (inactive) | 16.7 µM (inactive) | 15.6 µM (inactive) | 14.7 µM (inactive) | 10.7 µM (inactive) | 18.2 µM (inactive) | 20.9 µM (inactive) | 35.7 µM (inactive) | 29.1 µM (inactive) | 2.59 µM (inactive) | 20.3 µM (inactive) | 14.2 µM (inactive) | 15.8 µM (inactive) | 2.83 µM (inactive) | 20.7 µM (inactive) | 17.6 µM (inactive) | 27 µM (inactive) | 1.13 µM (inactive) | 14.6 µM (inactive) | – |
| O=S(=O)(CC#CCS(=O)(=O)c1ccccc1)c1ccccc1 | 1.01 µM (active) | 4.35 µM (inactive) | 3.72 µM (inactive) | 5.09 µM (inactive) | 6.68 µM (inactive) | 1.84 µM (inactive) | 19.1 µM (inactive) | 13.4 µM (inactive) | 18.5 µM (inactive) | 2.66 µM (inactive) | 12.4 µM (inactive) | 1.77 µM (inactive) | 4.91 µM (inactive) | 1.79 µM (inactive) | 16.1 µM (inactive) | 11.6 µM (inactive) | 14.6 µM (inactive) | 1.77 µM (inactive) | 3.13 µM (inactive) | – |
| Cc1ccc(C2C(Cl)C(=O)N2n2cnc3ccccc3c2=O)cc1 (configuration not stated) | 89.3 µM (inactive) | > 100 µM (inactive) | – | 26.5 µM (inactive) | > 100 µM (inactive) | 65.9 µM (inactive) | > 100 µM (inactive) | 67.3 µM (inactive) | > 100 µM (inactive) | 21.5 µM (inactive) | > 100 µM (inactive) | – | – | > 100 µM (inactive) | – | – | 26 µM (inactive) | > 100 µM (inactive) | – | > 100 µM (inactive) |
| C[Si](C)(C)CNC(=O)OCc1ccccc1 | > 100 µM (inactive) | > 100 µM (inactive) | 75 µM (inactive) | 76.7 µM (inactive) | 48 µM (inactive) | 87.1 µM (inactive) | > 100 µM (inactive) | 0.962 µM (active) | > 100 µM (inactive) | 30.6 µM (inactive) | > 100 µM (inactive) | > 100 µM (inactive) | > 100 µM (inactive) | > 100 µM (inactive) | > 100 µM (inactive) | > 100 µM (inactive) | 66.4 µM (inactive) | > 100 µM (inactive) | 98.9 µM (inactive) | – |
| CC[C@@]1(O)C(=O)OCc2c1cc1n(c2=O)Cc2c-1nc1ccccc1c2/C=N\NC(=O)C(N)CCSC (some centres not stated) | 0.0253 µM (active) | < 0.01 µM (active) | 0.0395 µM (active) | 0.668 µM (active) | 0.266 µM (active) | 0.299 µM (active) | 0.0183 µM (active) | < 0.0127 µM (active) | < 0.01 µM (active) | < 0.01 µM (active) | 0.254 µM (active) | 0.224 µM (active) | 0.0175 µM (active) | < 0.01 µM (active) | 0.0628 µM (active) | 1.24 µM (inactive) | < 0.016 µM (active) | < 0.01 µM (active) | 0.102 µM (active) | – |
| CCOC(=O)c1ccc(Nc2cnc3ccc(C(F)(F)F)cc3n2)cc1 | 14.8 µM (inactive) | 12.6 µM (inactive) | 12.8 µM (inactive) | 24.6 µM (inactive) | 11.9 µM (inactive) | 11.6 µM (inactive) | 14.5 µM (inactive) | 35.9 µM (inactive) | 20.7 µM (inactive) | 10.3 µM (inactive) | 13.1 µM (inactive) | 17.9 µM (inactive) | 18.2 µM (inactive) | 15.2 µM (inactive) | 16.6 µM (inactive) | 23.4 µM (inactive) | 16.4 µM (inactive) | 16.9 µM (inactive) | 15.8 µM (inactive) | – |
| CCCCCCCCCCCCCCCCCCNc1ccn(C2OC(COP(=O)(O)OCC3OC(n4ccc(NC(=O)CCCCCCCCCCCCCCCCC)nc4=O)C(OC(C)=O)C3OC(C)=O)C(OC(C)=O)C2OC(C)=O)c(=O)n1 (configuration not stated) | > 100 µM (inactive) | > 100 µM (inactive) | > 100 µM (inactive) | > 100 µM (inactive) | > 100 µM (inactive) | > 100 µM (inactive) | > 100 µM (inactive) | > 100 µM (inactive) | > 100 µM (inactive) | > 100 µM (inactive) | > 100 µM (inactive) | > 100 µM (inactive) | > 100 µM (inactive) | > 100 µM (inactive) | > 100 µM (inactive) | > 100 µM (inactive) | > 100 µM (inactive) | > 100 µM (inactive) | > 100 µM (inactive) | – |
| CCC/C(Cl)=N\OC(=O)Nc1ccc(F)cc1 | 16.7 µM (inactive) | 26.1 µM (inactive) | 21.1 µM (inactive) | 17.3 µM (inactive) | 28.3 µM (inactive) | 16.9 µM (inactive) | 52.8 µM (inactive) | > 45.1 µM (inactive) | > 100 µM (inactive) | 2.18 µM (inactive) | 20.6 µM (inactive) | 16.3 µM (inactive) | 17 µM (inactive) | 12.3 µM (inactive) | 16.9 µM (inactive) | 17.9 µM (inactive) | 19.7 µM (inactive) | 1.91 µM (inactive) | 15.1 µM (inactive) | – |
| COc1cc(C2c3cc4c(cc3[C@@H](Nc3ccc(C(=O)O)cc3)C3COC(=O)[C@H]23)OCO4)cc(OC)c1O (some centres not stated) | 19.4 µM (inactive) | 14.6 µM (inactive) | – | 27.4 µM (inactive) | 22 µM (inactive) | 20.2 µM (inactive) | 18.3 µM (inactive) | – | 14.1 µM (inactive) | – | 21.6 µM (inactive) | – | – | 31.6 µM (inactive) | 18.7 µM (inactive) | – | 3.72 µM (inactive) | 4.98 µM (inactive) | – | 10.7 µM (inactive) |
| Cc1cc(=O)oc2cc(O)ccc12 [HYMECROMONE] | > 100 µM (inactive) | > 100 µM (inactive) | > 100 µM (inactive) | > 100 µM (inactive) | > 100 µM (inactive) | > 100 µM (inactive) | > 100 µM (inactive) | > 100 µM (inactive) | > 100 µM (inactive) | 69 µM (inactive) | > 100 µM (inactive) | > 100 µM (inactive) | > 100 µM (inactive) | > 100 µM (inactive) | 65.8 µM (inactive) | > 100 µM (inactive) | > 100 µM (inactive) | > 100 µM (inactive) | 88.3 µM (inactive) | – |
